Experiment in all cases: NCI tumour cell line growth inhibition, 48 h
Test [1] has as its system HL-60(TB) leukemia.
For test [2], the system named is OVCAR-3 ovarian.
For test [3], the system named is NCI-H522 lung.
For test [4], the system named is NCI-H460 lung.
The test system of test [5] is A498 renal.
In test [6] the test system is NCI-H226 lung.
Test [7] deals with BT-549 breast.
Test [8] relates to MDA-MB-231 breast.
The subject of test [9] is NCI/ADR-RES ovarian.
In test [10] the test system is T-47D breast.

The record followed here is PubChem BioAssay (NCI).

Each structure is given as a SMILES string.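 Five concentrations, 48 hours, 96-well plates. GI50 marks 50% less growth. The concentration for full growth arrest is given as TGI.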 Where only a bound is given, the exact number is not on record here.

`CC1=C(Cl)C=CP(=O)(OC(C)C)C1` (centres undefined): the TGI was over 100 µM in test [1]; over 100 µM in test [2]; 87.7 µM in test [3]; over 100 µM in [4]; over 100 µM in test [5].

Consider `C=C1C2CC(OC(C)=O)C3(C)C(c4ccoc4)OC(=O)[C@@H](O)[C@]13OC1C[C@H](OC(C)=O)C(C)(C)[C@H](CC(=O)OC)[C@]12C` (some centres undefined), for which the TGI in test [1], in test [2], in [6], in [4] and in [5] was over 100 µM throughout.

Take `COc1ccc2c(c1)[n+]([O-])c(-c1ccc(C)cc1)c(N)[n+]2[O-]`: the TGI in test [1] was over 100 µM; in [2], over 100 µM; in test [6], over 100 µM; in test [3] it was 30.3 µM; in [4], over 100 µM; in test [5] it was over 100 µM.

With `C#CC1(O)c2ccccc2C(=O)c2ccccc21`, the TGI in test [1], in [6], in [3], in [4] and in test [5] was over 100 µM in each case.

In the case of `COc1ccc(-c2cc(-c3cc(Cl)cc(Br)c3O)[nH]c(=O)n2)cc1`, the TGI in [1] was 48.5 µM; in [2] it was 31.5 µM; in test [6], 33.4 µM; in test [3], 30 µM; in test [4], 34.6 µM; in test [5], 31.4 µM.

`Cc1ccc(NC(=S)SCCC(=O)O)cc1`: the TGI in [1], in test [2], in test [6], in [3], in [4] and in [5] was over 100 µM throughout.

Consider `OCCNCCCOc1ccc2ncnc(Nc3ccc(Oc4cccc(C(F)(F)F)c4)c(Cl)c3)c2c1`, for which the GI50 in test [7] is 1.82 µM; in [2], 1.5 µM; in test [8], 1.72 µM; in test [9], 2.65 µM; in test [4], 1.73 µM; in test [5], 1.72 µM. The TGI in [7] stood at 4.25 µM; in [2], 2.92 µM; in test [8] it was 3.2 µM; in test [9], 9.3 µM; in test [4] it was 3.31 µM; in test [5], 5.29 µM.

`CC(=O)[CH-]C(=O)c1ccccc1.CC(=O)[CH-]C(=O)c1ccccc1.Cl.[O-]c1ccccn1.[O-]c1ccccn1.[Ti+4]`: the GI50 in test [1], in test [2], in test [6], in [3], in [4] and in [5] was over 100 µM in each case. Further, the TGI in test [1], in test [2], in [6], in [3], in test [4] and in [5] was over 100 µM each time.

For `Cc1cc(N2CCCC2)nc(NCc2cc(Nc3ccnc4cc(Cl)ccc34)ccc2F)n1`, the GI50 in test [7] was 1.54 µM; in test [1], 1.99 µM; in test [2], 1.57 µM; in test [3], 1.41 µM; in test [9], 1.39 µM; in test [4], 1.23 µM. For the same molecule, in test [5], the GI50 was 1.04 µM. Moreover, the TGI in test [7] turned out to be 3.3 µM; in test [1], 4.49 µM; in [2], 3.06 µM; in [3], 3.09 µM; in [9], 2.99 µM; in test [4] it was 2.86 µM. The molecule further displayed a TGI in [5] of 2.54 µM.

As to `CC12CO[C@@](C)(CC(S(=O)(=O)c3ccccc3)C1)O2` (some centres undefined), the TGI in test [1], in test [2], in test [3] and in [4] was over 100 µM each time.

For `COC(=O)C1C=NNC1C(=O)OC` (centres undefined), the TGI in test [1], in test [2], in test [6], in [3], in test [4] and in test [5] was over 100 µM in each case.

For the molecule `CCCCN(CCCC)CCC(O)c1cc2c(Cl)cc(Cl)cc2c2cc(C(F)(F)F)ccc12` (centres undefined), the TGI was 21.8 µM in test [1]; 28.9 µM in test [10]; 23.7 µM in test [2]; 32.9 µM in test [3]; 15.3 µM in test [8]; 26.1 µM in test [9]. Besides, the values for the TGI in [4] and in test [5] were 25.5 µM and 13.8 µM, respectively.

Regarding `O=S1(=O)CCCS(=O)(=O)C(c2ccccc2)=C1c1ccccc1`, the TGI was 44.6 µM in test [1]; over 100 µM in [2]; over 100 µM in test [6]; 89.9 µM in test [3]; over 100 µM in test [4]; over 100 µM in test [5].

As for `CCN(CC)C(=O)N1CCN(C=S)CC1`, the TGI in test [1], in [2], in [6], in test [3], in [4] and in test [5] was over 100 µM in each case.

As for `O=c1c(Br)cc2c(-c3ccccc3)c3cc(Br)c(O)c(Br)c3oc-2c1Br`, the TGI in test [1], in test [10], in [2], in [6], in test [8] and in test [9] was over 100 µM in each case. The TGI in test [4] and in test [5] was over 100 µM each time.

For `Cc1ccc(-c2cc(=O)c3cc(C)c(C)c(C(=O)O)c3o2)cc1N`, the TGI in test [2], in test [6], in test [3] and in [4] was over 100 µM in each case.

With `CCOC(=N)CC(=O)Nc1cccc(Cl)c1`, the TGI in test [1], in test [2], in test [6], in test [3], in test [4] and in [5] was over 100 µM in each case.

Regarding `O=C(CC1(O)C(=O)Nc2ccccc21)c1ccc(O)cc1` (centres undefined), the TGI in test [1], in test [2], in test [6], in test [4] and in test [5] was over 100 µM throughout.
